Laboratory results reported in patent publication US20220340983A1, “SYSTEMS AND ASSAYS FOR IDENTIFYING PU.1 INHIBITORS” (Massachustts Institute of Technology, priority 2019, published 2022).

Experiments:
[1] = test system: PU.1 dependent gene expression; experiment: RT-qPCR of mRNA levels in BV2 PU.1-Luciferase cells (validation round 3); type: cell-based, mouse; details: 2-day treatment
iPSC-microglia [2] = experiment: Morphology of IFN-gamma activated iPSC-microglia; type: cell-based, human; details: IFN-gamma 25 ng/mL 3 days, co-treated with A11 2.5 μM 2 days
Procedure: (§1) FIGS. 10A-10D show anti-inflammatory properties of A11 after IFNγ treatment on human induced pluripotent stem cell derived microglia. Cell viability is shown in FIG. 10A as measured with CellTiter Glo (Promega) in untreated (vehicle), A11 (2.5 μM) treated, IFNγ (25 ng/mL) treated and A11 +IFNγ treated cells. The morphology (round represent un-activated and elongated, filamentous represent activated by IFNγ) of these same conditions is shown in FIGS. 10B and quantified in FIG. 10C.
(§2) Human induced pluripotent stem cell derived microglia (iPSC-microglia) were activated with IFN-gamma (25 ng/mL, 3 days) and co-treated with A11 (2.5 μM, 2 days).

iPSC-microglia [3] = experiment: mRNA expression (RTqPCR) in IFN-gamma activated iPSC-microglia; type: cell-based, human; details: IFN-gamma 25 ng/mL 3 days, co-treated with A11 2.5 μM 2 days
Procedure: as §1, §2

iPS and ES-microglia [4] = experiment: Intracellular neutral lipid accumulation (BODIPY staining) in microglia; type: cell-based, human
Procedure: (§3) Top row: Effect of a 2-day treatment with DPBS (10 μL/mL), IFNγ (25 ng/mL), TNFα (25 ng/mL), TGFβ (25 ng/mL), IL1β (25 ng/mL), LPS (25 ng/mL), ATP (100 nM), CD200 (100 ng/mL), IFNα (25 ng/mL), IL12 (5 ng/mL), CX3CL1 (100 ng/mL), CCL5 (100 ng/mL), PMA (10 ng/mL), IFNβ (10 ng/mL), IL33 (10 ng/mL), and IL4 (100 ng/mL). n=52 for DPBS, n=9 for all other inflammatory molecules, except IL33 where n=3. Bottom row: effect after co-application with A11 (20 nM). Scale bar 10 μm. […] Student's unpaired, two sided t-test, ****P≤0.0001, ***P≤0.001, **P≤0.01, *P≤0.05. […] Top row: An increase in number of cells per well with ≥2 BODIPY-positive structures was observed after a 2-day treatment with IFNγ (25 ng/mL), TNFα (25 ng/mL) and IL33 (10 ng/mL) as compared to DPBS treatment. […] Student's unpaired, two-sided t-test, ***P≤0.001, **P≤0.01, *P≤0.05. […] A 2-day treatment with IFNγ (25 ng/mL) caused increase in ATP levels that was reversed by A11 (20 nM) treatment in iPS (left panel) and ES-microglia (right panel). Student's unpaired, twosided t-test, **P≤0.01. […]
(§4) FIGS. 17A-17H show results from comparing the effects of multiple inflammatory molecules in iPS-microglia. […] Quantification based on total Vybrant DiI-positive surface area divided by number of Hoechst positive cells per field of view. […]

iPS and ES-microglia [5] = experiment: ATP levels (CellTiter-Glo luminescence per well) in microglia; type: cell-based, human
Procedure: as §3, §4

iPS and ES-microglia [6] = experiment: ELISA for IL1β in microglia supernatant; type: cell-based, human
multiple cell lines = experiment: Time course of A11 efficacy after application; type: cell-based; details: A11 obtained from several vendors
Excerpt: The gene modulation was reproduced in unmodified BV2 cells and primary mouse microglia. FIG. 14B: Concentration-response curve of A11 from multiple vendors, measured as percent reduction of luminescence. Non-linear fit with Hill's equation with baseline fixed to 0. FIG. 14C: Time course for reduction of mRNA levels of luciferase and il1β as well as luminescence emission in BV2 PU.1-Luciferase cells. FIGS. 14D-14E: Time and concentration-response curve (of pHrodo-labelled particles) for uptake of pHrodo-labelled Zymosan A (FIG. 14D) and mouse myelin in (FIG. 14E) in BV2 cells (left panels, respectively in each FIGS. 14D-14E), and iPS-microglia (right panels, respectively in each FIGS. 14D-14E). FIGS.: 14F-14G: Time and concentration-response curves of A11 (FIG. 14F) and DB2313 (FIG. 14G) of Zymosan A uptake in BV2 cells. Left, middle, and right panels show 1, 2 and 3 hours after compound application, respectively. ANOVA followed by Dunnett's post hoc test versus vehicle, black bars indicate P≤0.05.

O=S(=O)(NCc1ccncc1)c1ccc(C2CCCCC2)cc1 [Compound A11]
mRNA levels Apoe [1]: 1.522 multiples of 1× | mRNA levels IL1β [1]: 0.418 multiples of 1× | mRNA levels Lucif. [1]: 0.376 multiples of 1× | mRNA levels Spi1 [1]: 1.001 multiples of 1× | mRNA levels Trem2 [1]: 2.051 multiples of 1× | mRNA levels Tyrobp [1]: 2.101 multiples of 1× | morphology induced by IFN-gamma (iPSC-microglia [2]): reversal of the elongated and filamentous morphology induced by IFN-gamma | CCL2 mRNA expression levels (iPSC-microglia [3]): reversal of IL1-beta and CCL2 increases to vehicle treated levels | IL1-beta mRNA expression levels (iPSC-microglia [3]): reversal of IL1-beta and CCL2 increases to vehicle treated levels | number of cells containing ≥2 BODIPY-positive structures (iPS and ES-microglia [4]; A11 alone <20 nM, iPS and ES-microglia): no effect | number of cells with ≥2 BODIPY-positive structures, increase by inflammatory molecules (iPS and ES-microglia [4]; iPS-microglia, 2-day treatment with IFNγ, TNFα or IL33 plus A11): reversed this increase | ATP levels, increase caused by IFNγ (iPS and ES-microglia [5]; 2-day IFNγ 25 ng/mL plus A11 20 nM): reversed | amount of ATP per well (iPS and ES-microglia [5]; A11 alone ≤20 nM): no effect | supernatant IL1β levels, increase by IFNγ (iPS and ES-microglia [6]; 2-day IFNγ 25 ng/mL plus A11 20 nM, iPS and ES-microglia): reversed | IL1β concentration in the supernatant (iPS and ES-microglia [6]; A11 alone 20nM, 2-day treatment): did not affect | time after application at which efficacy starts (multiple cell lines): 3 h
